Assay results reported in patent publication US20260193249A1, “PREPARATION OF PYRAZOLOPYRIDINE AND TRIAZOLOPYRIDINE DERIVATIVES AS NOVEL DIACYLGLYCERIDE O-ACYLTRANSFERASE 2 INHIBITORS” (Merck Sharp & Dohme LLC, priority 2022, published 2026).
pIC50: −log10 of the molar value.

biological target: T1, human DGAT2 (Homo sapiens, UniProt Q96PD7); experiment: DGAT2 Enzymatic Activity Assay; assay type: biochemical; conditions: membrane prep of Sf-9 insect cells expressing hDGAT2; 13C18-triolein product by LC/MS/MS; 25 μM diolein, 5 μM 13C oleoyl-CoA
T1 construct: made in house; host or cells: Sf-9 insect cells (baculovirus), membrane fraction
T1 sequence (Q96PD7 1-388): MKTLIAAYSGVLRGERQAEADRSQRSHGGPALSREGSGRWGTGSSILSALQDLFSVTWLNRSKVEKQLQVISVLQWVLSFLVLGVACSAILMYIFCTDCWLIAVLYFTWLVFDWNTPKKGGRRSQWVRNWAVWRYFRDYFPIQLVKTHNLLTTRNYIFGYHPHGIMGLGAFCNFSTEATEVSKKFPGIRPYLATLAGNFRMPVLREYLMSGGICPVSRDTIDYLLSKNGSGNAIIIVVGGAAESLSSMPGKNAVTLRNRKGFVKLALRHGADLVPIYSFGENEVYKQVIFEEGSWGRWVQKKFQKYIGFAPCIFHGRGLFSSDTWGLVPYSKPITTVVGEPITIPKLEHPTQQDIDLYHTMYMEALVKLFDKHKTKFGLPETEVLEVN
Experimental: Sf-9 insect cells were maintained in Grace's insect cell culture medium with 10% heated-inactivated fetal bovine serum, 1% Pluronic F-68 and 0.14 μg/ml Kanamycine sulfate at 27° C. in a shaker incubator. After infection with untagged baculovirus expressing human DGAT2 (hDGAT2) at multiplicity of infection (MOI) 3 for 48 hours, cells were harvested. Cell pellets were suspended in buffer containing 10 mM Tris-HCl pH 7.5, 1 mM EDTA, 250 mM sucrose and Complete Protease Inhibitor Cocktail (Sigma Aldrich), and sonicated on ice. Cell debris were removed by centrifugation at 2000×g for 15 minutes. Membrane fractions were isolated by ultracentrifugation (100,000×g), resuspended in the same buffer, and frozen (−80° C.) for later use. The protein concentration was determined with the Pierce™ BCA Protein Assay Kit (Thermo Fisher Scientific).
LC/MS/MS analyses were performed using Thermal Fisher's LX4-TSQ Vantage system. This system consists of an Agilent binary high-performance liquid chromatography (HPLC) pump and a TSQ Vantage triple quadrupole MS/MS instrument. For each sample, 2 μL samples from the top organic layer of in-plate liquid-liquid extraction were injected onto a Thermo Betabasic C4 column (2.1 mm×20 mm, 5 μm particle size). The samples were then eluted using the following conditions; mobile phase: Isopropanol:acetonitrile/10 mM ammonium formate=50/35/15 (v/v/v), flow rate: 0.8 mL/min, temperature: 25° C. Data was acquired in positive mode using a heated electrospray ionization (HESI) interface. […] The peak area was integrated by Xcalibur Quan software. The ratio between the ^13C18triolein generated in the reaction and spiked in internal standard ^13C21-triolein was used to generate percentage inhibition and IC50 values. Compound percentage inhibition was calculated by the following formula: Inhibition %=1−[(compound response−low control)/(high control−low control)]×100%.
DGAT2 activity was determined by measuring the amount of enzymatic product ^13C18-triolein (^13C-1,2,3-Tri(cis-9-octadecenoyl)glycerol) using the membrane prep mentioned above. The assay was carried out in ABgene 384-well assay plates in a final volume of 25 μL at rt.

With `CC1(NC(=O)c2cc3cc(Oc4ncc(F)cc4OCC(F)(F)F)ccn3n2)CS(=O)(=O)C1` [Example 17, 5-((5-Fluoro-3-(2,2,2-trifluoroethoxy)pyridin-2-yl)oxy)-N-(3-methyl-1,1-dioxidothietan-3-yl)pyrazolo[1,5-a]pyridine-2-carboxamide] as the molecule, how does the pIC50 read?
Its pIC50 is 7.14.

With `C[C@@]1(NC(=O)c2cc3cc(Oc4ncc(F)cc4OCC(F)(F)F)ccn3n2)CCS(=O)(=O)C1` [Example 18, (R)-5-((5-Fluoro-3-(2,2,2-trifluoroethoxy)pyridin-2-yl)oxy)-N-(3-methyl-1,1-dioxidotetrahydrothiophen-3-yl)pyrazolo[1,5-a]pyridine-2-carboxamide] as the molecule, how does the pIC50 read?
The pIC50 was 7.48.

With `Cc1c(C(=O)NC2(C)CCS(=O)(=O)CC2)nn2ccc(Oc3ncccc3OCC(F)(F)F)cc12` [Example 19, 3-Methyl-N-(4-methyl-1,1-dioxidotetrahydro-2H-thiopyran-4-yl)-5-((3-(2,2,2-trifluoroethoxy)pyridin-2-yl)oxy)pyrazolo[1,5-a]pyridine-2-carboxamide] as the molecule, how does the pIC50 read?
The pIC50 was 8.14.

`Cc1c(C(=O)NC2(C)CS(=O)(=O)C2)nn2ccc(Oc3ncccc3OCC(F)(F)F)cc12` [Example 20, 3-Methyl-N-(3-methyl-1,1-dioxidothietan-3-yl)-5-((3-(2,2,2-trifluoroethoxy)pyridin-2-yl)oxy)pyrazolo[1,5-a]pyridine-2-carboxamide] was tested. Which pIC50 did it give?
Its pIC50 is 6.77.

With `CC1(NC(=O)c2nn3ccc(Oc4ncccc4OCC(F)(F)F)cc3c2F)CS(=O)(=O)C1` [Example 22, 3-Fluoro-N-(3-methyl-1,1-dioxidothietan-3-yl)-5-((3-(2,2,2-trifluoroethoxy)pyridin-2-yl)oxy)pyrazolo[1,5-a]pyridine-2-carboxamide] as the molecule, how does the pIC50 read?
The pIC50 was 6.43.

`C[C@@]1(NC(=O)c2nn3ccc(Oc4ncccc4OCC(F)(F)F)cc3c2F)CCS(=O)(=O)C1` [Example 23, (R)-3-Fluoro-N-(3-methyl-1,1-dioxidotetrahydrothiophen-3-yl)-5-((3-(2,2,2-trifluoroethoxy)pyridin-2-yl)oxy)pyrazolo[1,5-a]pyridine-2-carboxamide] was tested. Which pIC50 did it give?
The pIC50 was 6.09.

`CC1(NC(=O)c2nn3ccc(Oc4ncccc4OCC(F)(F)F)cc3c2Cl)CS(=O)(=O)C1` [Example 25, 3-Chloro-N-(3-methyl-1,1-dioxidothietan-3-yl)-5-((3-(2,2,2-trifluoroethoxy)pyridin-2-yl)oxy)pyrazolo[1,5-a]pyridine-2-carboxamide] was tested. Which pIC50 did it give?
Its pIC50 is 7.52.

How did the pIC50 turn out when `C[C@@]1(NC(=O)c2nn3ccc(Oc4ncccc4OCC(F)(F)F)cc3c2Cl)CCS(=O)(=O)C1` [Example 26, (R)-3-Chloro-N-(3-methyl-1,1-dioxidotetrahydrothiophen-3-yl)-5-((3-(2,2,2-trifluoroethoxy)pyridin-2-yl)oxy)pyrazolo[1,5-a]pyridine-2-carboxamide] was run?
Its pIC50 is 6.41.

`C[C@]1(NC(=O)c2nn3ccc(Oc4ncccc4OCC(F)(F)F)cc3c2Cl)CCS(=O)(=O)C1` [Example 27, (S)-3-Chloro-N-(3-methyl-1,1-dioxidotetrahydrothiophen-3-yl)-5-((3-(2,2,2-trifluoroethoxy)pyridin-2-yl)oxy)pyrazolo[1,5-a]pyridine-2-carboxamide] was tested. Which pIC50 did it give?
The pIC50 was 6.40.

With `CC1(NC(=O)c2nn3ccc(Oc4ncc(F)cc4OCC(F)(F)F)cc3c2F)CS(=O)(=O)C1` [Example 28, 3-Fluoro-5-((5-fluoro-3-(2,2,2-trifluoroethoxy)pyridin-2-yl)oxy)-N-(3-methyl-1,1-dioxidothietan-3-yl)pyrazolo[1,5-a]pyridine-2-carboxamide] as the molecule, how does the pIC50 read?
Its pIC50 is 6.89.

How did the pIC50 turn out when `C[C@@]1(NC(=O)c2nn3ccc(Oc4ncc(F)cc4OCC(F)(F)F)cc3c2F)CCS(=O)(=O)C1` [Example 29, (R)-3-Fluoro-5-((5-fluoro-3-(2,2,2-trifluoroethoxy)pyridin-2-yl)oxy)-N-(3-methyl-1,1-dioxidotetrahydrothiophen-3-yl)pyrazolo[1,5-a]pyridine-2-carboxamide] was run?
The pIC50 was 6.56.

`CC1(NC(=O)c2nn3ccc(Oc4nccnc4OCC(F)F)cc3c2Cl)CS(=O)(=O)C1` [Example 30, 3-Chloro-5-((3-(2,2-difluoroethoxy)pyrazin-2-yl)oxy)-N-(3-methyl-1,1-dioxidothietan-3-yl)pyrazolo[1,5-a]pyridine-2-carboxamide] was tested. Which pIC50 did it give?
The pIC50 was 7.11.

With `CC1(NC(=O)c2nn3ccc(Oc4nccnc4OCC(F)F)cc3c2F)CS(=O)(=O)C1` [Example 31, 5-((3-(2,2-Difluoroethoxy)pyrazin-2-yl)oxy)-3-fluoro-N-(3-methyl-1,1-dioxidothietan-3-yl)pyrazolo[1,5-a]pyridine-2-carboxamide] as the molecule, how does the pIC50 read?
The pIC50 was 6.71.

With `CC1(NC(=O)c2nn3ccc(Oc4nccnc4OCC(F)F)cc3c2F)CCS(=O)(=O)CC1` [Example 32, 5-((3-(2,2-Difluoroethoxy)pyrazin-2-yl)oxy)-3-fluoro-N-(4-methyl-1,1-dioxidotetrahydro-2H-thiopyran-4-yl)pyrazolo[1,5-a]pyridine-2-carboxamide] as the molecule, how does the pIC50 read?
The pIC50 was 8.00.

How did the pIC50 turn out when `CC1(NC(=O)c2nn3ccc(Oc4ncc(F)cc4OCC(F)(F)F)c(Cl)c3c2Cl)CCS(=O)(=O)CC1` [Example 33, 3,4-Dichloro-5-((5-fluoro-3-(2,2,2-trifluoroethoxy)pyridin-2-yl)oxy)-N-(4-methyl-1,1-dioxidotetrahydro-2H-thiopyran-4-yl)pyrazolo[1,5-a]pyridine-2-carboxamide] was run?
The pIC50 was 8.06.

With `CC1(NC(=O)c2nn3ccc(Oc4ncc(F)cc4OCC(F)(F)F)cc3c2Cl)CCS(=O)(=O)CC1` [Example 34, 3-Chloro-5-((5-fluoro-3-(2,2,2-trifluoroethoxy)pyridin-2-yl)oxy)-N-(4-methyl-1,1-dioxidotetrahydro-2H-thiopyran-4-yl)pyrazolo[1,5-a]pyridine-2-carboxamide] as the molecule, how does the pIC50 read?
Its pIC50 is 8.14.

How did the pIC50 turn out when `CC1(NC(=O)c2nn3ccc(Oc4nccnc4OCC(F)(F)F)cc3c2Cl)CCS(=O)(=O)CC1` [Example 35, 3-Chloro-N-(4-methyl-1,1-dioxidotetrahydro-2H-thiopyran-4-yl)-5-((3-(2,2,2-trifluoroethoxy)pyrazin-2-yl)oxy)pyrazolo[1,5-a]pyridine-2-carboxamide] was run?
Its pIC50 is 7.74.

`CC1(NC(=O)c2nn3ccc(Oc4ncc(F)cc4OCC(F)(F)F)cc3c2F)CCS(=O)(=O)CC1` [Example 36, 3-Fluoro-5-((5-fluoro-3-(2,2,2-trifluoroethoxy)pyridin-2-yl)oxy)-N-(4-methyl-1,1-dioxidotetrahydro-2H-thiopyran-4-yl)pyrazolo[1,5-a]pyridine-2-carboxamide] was tested. Which pIC50 did it give?
The pIC50 was 8.14.

With `CC1(NC(=O)c2nn3ccc(Oc4ncc(Cl)cc4OCC(F)(F)F)cc3c2F)CS(=O)(=O)C1` [Example 37, 5-((5-Chloro-3-(2,2,2-trifluoroethoxy)pyridin-2-yl)oxy)-3-fluoro-N-(3-methyl-1,1-dioxidothietan-3-yl)pyrazolo[1,5-a]pyridine-2-carboxamide] as the molecule, how does the pIC50 read?
Its pIC50 is 8.11.

With `CC1(NC(=O)c2nn3ccc(Oc4ncc(C#N)cc4OCC(F)(F)F)cc3c2Cl)CCS(=O)(=O)CC1` [Example 41, 3-Chloro-5-((5-cyano-3-(2,2,2-trifluoroethoxy)pyridin-2-yl)oxy)-N-(4-methyl-1,1-dioxidotetrahydro-2H-thiopyran-4-yl)pyrazolo[1,5-a]pyridine-2-carboxamide] as the molecule, how does the pIC50 read?
Its pIC50 is 8.30.

How did the pIC50 turn out when `CC1(NC(=O)c2cc3cc(Oc4ncc(C#N)cc4OCC(F)(F)F)ccn3n2)CCS(=O)(=O)CC1` [Example 42, 5-((5-Cyano-3-(2,2,2-trifluoroethoxy)pyridin-2-yl)oxy)-N-(4-methyl-1,1-dioxidotetrahydro-2H-thiopyran-4-yl)pyrazolo[1,5-a]pyridine-2-carboxamide] was run?
Its pIC50 is 7.70.

With `CCc1c(C(=O)NC2(C)CCS(=O)(=O)CC2)nn2ccc(Oc3ncccc3OCC(F)(F)F)cc12` [Example 46, 3-Ethyl-N-(4-methyl-1,1-dioxidotetrahydro-2H-thiopyran-4-yl)-5-((3-(2,2,2-trifluoroethoxy)pyridin-2-yl)oxy)pyrazolo[1,5-a]pyridine-2-carboxamide] as the molecule, how does the pIC50 read?
Its pIC50 is 7.77.

With `CCc1c(C(=O)NC2(C)CS(=O)(=O)C2)nn2ccc(Oc3ncccc3OCC(F)(F)F)cc12` [Example 47, 3-Ethyl-N-(3-methyl-1,1-dioxidothietan-3-yl)-5-((3-(2,2,2-trifluoroethoxy)pyridin-2-yl)oxy)pyrazolo[1,5-a]pyridine-2-carboxamide] as the molecule, how does the pIC50 read?
Its pIC50 is 6.59.
